Experimental data from ChEMBL document CHEMBL2407042, “Investigation of the protein alkylation sites of the STAT3:STAT3 inhibitor Stattic by mass spectrometry” (Bioorg Med Chem Lett, 2013).
Active and inactive are the calls of the source. No cut-off for these calls is given here.

Experiments:
Homo sapiens [1] = species: Homo sapiens; assay: Binding affinity to STAT3 beta (127 to 722) (unknown origin) expressed in Escherichia coli BL21 Rosetta at 50 uM treated for 1 hr prior to trypsin digestion measured after 24 hrs by LC-MS/MS analysis in presence of ammonium bicarbonate and acetonitrile
Homo sapiens [2] = species: Homo sapiens; assay: Binding affinity to STAT3 beta (127 to 722) (unknown origin) expressed in Escherichia coli BL21 Rosetta at 50 uM treated for 1 hr prior to trypsin digestion measured after 24 hrs by LC-MS/MS analysis in presence of ammonium bicarbonate and guanidium HCl
Homo sapiens [3] = species: Homo sapiens; assay: Binding affinity to STAT3 beta (127 to 722) (unknown origin) expressed in Escherichia coli BL21 Rosetta at 50 uM treated for 1 hr prior to trypsin digestion measured after 24 hrs by LC-MS/MS analysis in presence of ammonium bicarbonate
Homo sapiens [4] = species: Homo sapiens; assay: Binding affinity to STAT3 beta (127 to 722) (unknown origin) expressed in Escherichia coli BL21 Rosetta at 50 uM after 1 hr by mass spectrophotometric analysis
Homo sapiens [5] = species: Homo sapiens; assay: Binding affinity to STAT3 beta (127 to 722) (unknown origin) expressed in Escherichia coli BL21 Rosetta at 50 uM treated for 1 hr prior to trypsin digestion measured after 24 hrs by LC-MS/MS analysis in presence of ammonium bicarbonate and N-octyl-glucoside

## O=[N+]([O-])c1ccc2c(c1)S(=O)(=O)C=C2
Homo sapiens [1]
  Activity: Active
Homo sapiens [2]
  Activity: inactive
Homo sapiens [3]
  Activity: Active
Homo sapiens [4]
  Activity: Active
Homo sapiens [5]
  Activity: Active
